Assay results taken from ChEMBL document CHEMBL4706479, “Novel Aryloxyethyl Derivatives of 1-(1-Benzoylpiperidin-4-yl)methanamine as the Extracellular Regulated Kinases 1/2 (ERK1/2) Phosphorylation-Preferring Serotonin 5-HT Receptor-Biased Agonists with Robust Antidepressant-like Activity” (J Med Chem, 2019).

Legend:
[1] = molecular target: Alpha-1B adrenergic receptor (Homo sapiens) (UniProt P35368); assay: Inhibition of adrenergic alpha-1B receptor (unknown origin) at 1 uM relative to control
Chain of Alpha-1B adrenergic receptor (Homo sapiens) (P35368 whole entry): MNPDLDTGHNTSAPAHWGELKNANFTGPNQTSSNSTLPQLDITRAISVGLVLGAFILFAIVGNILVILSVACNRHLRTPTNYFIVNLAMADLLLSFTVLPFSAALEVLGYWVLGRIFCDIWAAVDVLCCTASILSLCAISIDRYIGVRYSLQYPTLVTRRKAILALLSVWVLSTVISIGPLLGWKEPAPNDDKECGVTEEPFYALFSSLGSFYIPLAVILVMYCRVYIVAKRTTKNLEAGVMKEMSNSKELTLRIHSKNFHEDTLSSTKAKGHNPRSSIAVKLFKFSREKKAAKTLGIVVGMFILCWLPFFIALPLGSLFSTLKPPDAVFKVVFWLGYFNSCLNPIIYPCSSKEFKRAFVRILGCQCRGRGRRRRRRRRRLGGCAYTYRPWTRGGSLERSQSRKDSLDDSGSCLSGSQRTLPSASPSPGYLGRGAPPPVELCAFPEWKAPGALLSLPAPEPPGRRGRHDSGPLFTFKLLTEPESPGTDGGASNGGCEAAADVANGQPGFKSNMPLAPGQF

[2] = molecular target: Beta-1 adrenergic receptor (Homo sapiens) (UniProt P08588); assay: Inhibition of adrenergic beta1 receptor (unknown origin) at 10 uM relative to control
[3] = molecular target: Cannabinoid receptor 1 (Homo sapiens) (UniProt P21554); assay: Inhibition of cannabinoid receptor 1 (unknown origin) at 10 uM relative to control
[4] = molecular target: D(3) dopamine receptor (Homo sapiens) (UniProt P35462); assay: Inhibition of dopamine D3 receptor (unknown origin) at 1 uM relative to control
Chain of D(3) dopamine receptor (Homo sapiens) (P35462 whole entry): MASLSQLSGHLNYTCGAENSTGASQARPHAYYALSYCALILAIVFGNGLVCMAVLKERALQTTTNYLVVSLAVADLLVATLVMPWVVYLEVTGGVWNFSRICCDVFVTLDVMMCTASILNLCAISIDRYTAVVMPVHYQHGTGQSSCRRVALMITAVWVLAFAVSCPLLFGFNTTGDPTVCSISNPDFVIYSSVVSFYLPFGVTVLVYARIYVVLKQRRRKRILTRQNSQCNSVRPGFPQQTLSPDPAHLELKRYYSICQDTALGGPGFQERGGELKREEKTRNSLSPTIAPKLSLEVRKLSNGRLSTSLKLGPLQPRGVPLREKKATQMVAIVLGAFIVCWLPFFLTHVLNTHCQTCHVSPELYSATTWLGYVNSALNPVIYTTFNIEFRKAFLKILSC

[5] = molecular target: Muscarinic acetylcholine receptor M4 (Homo sapiens) (UniProt P08173); assay: Inhibition of muscarinic M4 receptor (unknown origin) at 1 uM relative to control
Chain of Muscarinic acetylcholine receptor M4 (Homo sapiens) (P08173 whole entry): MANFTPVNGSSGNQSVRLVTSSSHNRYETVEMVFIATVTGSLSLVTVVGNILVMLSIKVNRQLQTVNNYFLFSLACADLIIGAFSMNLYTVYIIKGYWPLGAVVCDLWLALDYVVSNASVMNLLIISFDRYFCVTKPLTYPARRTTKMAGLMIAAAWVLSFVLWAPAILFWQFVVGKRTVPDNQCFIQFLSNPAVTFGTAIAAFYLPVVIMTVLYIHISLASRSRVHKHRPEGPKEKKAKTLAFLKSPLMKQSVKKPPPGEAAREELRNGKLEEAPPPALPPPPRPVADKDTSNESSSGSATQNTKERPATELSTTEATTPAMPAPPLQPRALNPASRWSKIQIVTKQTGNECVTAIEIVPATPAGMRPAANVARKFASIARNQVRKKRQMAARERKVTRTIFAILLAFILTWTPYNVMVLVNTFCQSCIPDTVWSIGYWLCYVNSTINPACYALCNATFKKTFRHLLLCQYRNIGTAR

[6] = molecular target: 5-hydroxytryptamine receptor 1B (Homo sapiens) (UniProt P28222); assay: Inhibition of 5-HT1B (unknown origin) at 10 uM relative to control
Chain of 5-hydroxytryptamine receptor 1B (Homo sapiens) (P28222 whole entry): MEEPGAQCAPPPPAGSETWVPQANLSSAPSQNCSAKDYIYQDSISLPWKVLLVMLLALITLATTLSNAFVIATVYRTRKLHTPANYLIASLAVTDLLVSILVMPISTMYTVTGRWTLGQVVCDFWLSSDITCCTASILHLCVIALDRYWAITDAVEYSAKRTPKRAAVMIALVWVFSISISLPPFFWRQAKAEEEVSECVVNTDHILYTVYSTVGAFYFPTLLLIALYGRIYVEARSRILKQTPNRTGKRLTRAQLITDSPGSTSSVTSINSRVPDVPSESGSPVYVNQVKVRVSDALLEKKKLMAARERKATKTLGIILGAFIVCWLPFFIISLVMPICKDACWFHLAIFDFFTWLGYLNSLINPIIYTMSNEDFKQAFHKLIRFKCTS

[7] = molecular target: 5-hydroxytryptamine receptor 1D (Homo sapiens) (UniProt P28221); assay: Inhibition of 5-HT1D (unknown origin) at 1 uM relative to control
[8] = molecular target: 5-hydroxytryptamine receptor 2B (Homo sapiens) (UniProt P41595); assay: Inhibition of 5-HT2B (unknown origin) at 10 uM relative to control
Chain of 5-hydroxytryptamine receptor 2B (Homo sapiens) (P41595 whole entry): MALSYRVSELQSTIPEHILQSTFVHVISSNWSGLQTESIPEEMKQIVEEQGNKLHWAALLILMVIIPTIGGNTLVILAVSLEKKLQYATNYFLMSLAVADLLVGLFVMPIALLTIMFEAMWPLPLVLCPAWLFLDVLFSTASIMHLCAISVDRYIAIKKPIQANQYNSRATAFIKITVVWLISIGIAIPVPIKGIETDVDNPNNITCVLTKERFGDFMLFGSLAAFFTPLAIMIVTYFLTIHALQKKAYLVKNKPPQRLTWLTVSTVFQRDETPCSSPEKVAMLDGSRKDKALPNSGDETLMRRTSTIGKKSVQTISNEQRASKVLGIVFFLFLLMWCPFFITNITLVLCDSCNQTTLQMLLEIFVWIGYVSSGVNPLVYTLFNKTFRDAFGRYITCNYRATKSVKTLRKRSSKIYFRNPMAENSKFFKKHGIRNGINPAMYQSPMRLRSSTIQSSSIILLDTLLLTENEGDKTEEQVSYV

[9] = molecular target: 5-hydroxytryptamine receptor 7 (Homo sapiens) (UniProt P34969); assay: Inhibition of 5-HT7 (unknown origin) at 1 uM relative to control
Chain of 5-hydroxytryptamine receptor 7 (Homo sapiens) (P34969 whole entry): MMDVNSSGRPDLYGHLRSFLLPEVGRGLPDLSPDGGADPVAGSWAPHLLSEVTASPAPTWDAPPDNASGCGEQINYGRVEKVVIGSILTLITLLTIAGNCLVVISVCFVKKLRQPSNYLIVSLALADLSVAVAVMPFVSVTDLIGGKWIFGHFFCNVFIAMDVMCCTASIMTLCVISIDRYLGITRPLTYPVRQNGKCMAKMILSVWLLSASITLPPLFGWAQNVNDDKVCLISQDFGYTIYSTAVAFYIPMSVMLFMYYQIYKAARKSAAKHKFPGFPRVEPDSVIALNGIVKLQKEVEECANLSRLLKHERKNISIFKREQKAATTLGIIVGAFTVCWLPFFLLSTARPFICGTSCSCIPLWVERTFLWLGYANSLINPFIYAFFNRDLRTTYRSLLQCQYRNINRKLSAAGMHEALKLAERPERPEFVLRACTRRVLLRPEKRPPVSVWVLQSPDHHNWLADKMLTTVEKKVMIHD

[10] = molecular target: Sodium-dependent noradrenaline transporter (Homo sapiens) (UniProt P23975); assay: Inhibition of norepinephrine transporter (unknown origin) at 10 uM relative to control
Chain of Sodium-dependent noradrenaline transporter (Homo sapiens) (P23975 whole entry): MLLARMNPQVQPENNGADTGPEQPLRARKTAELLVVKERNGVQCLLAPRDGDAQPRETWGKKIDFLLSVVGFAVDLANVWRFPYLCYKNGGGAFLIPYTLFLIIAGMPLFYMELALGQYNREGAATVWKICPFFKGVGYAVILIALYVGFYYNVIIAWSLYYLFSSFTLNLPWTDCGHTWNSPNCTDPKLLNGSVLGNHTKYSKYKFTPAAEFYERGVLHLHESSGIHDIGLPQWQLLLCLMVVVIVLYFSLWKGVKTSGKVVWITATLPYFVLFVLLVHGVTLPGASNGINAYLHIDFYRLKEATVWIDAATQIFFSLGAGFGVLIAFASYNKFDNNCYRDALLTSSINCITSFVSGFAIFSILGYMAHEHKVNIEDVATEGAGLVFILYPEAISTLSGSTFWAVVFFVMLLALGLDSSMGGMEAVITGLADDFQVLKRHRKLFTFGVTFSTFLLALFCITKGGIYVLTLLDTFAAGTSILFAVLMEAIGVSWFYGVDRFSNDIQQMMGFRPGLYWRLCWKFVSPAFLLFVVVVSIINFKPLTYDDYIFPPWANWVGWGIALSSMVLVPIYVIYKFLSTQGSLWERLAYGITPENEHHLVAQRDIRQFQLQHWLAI

Homo sapiens = organism: Homo sapiens; assay: Inhibition of L-type calcium channel dihydropyridine binding site (unknown origin) at 10 uM relative to control
[11] = molecular target: Tyrosine-protein kinase Lck (Homo sapiens) (UniProt P06239); assay: Inhibition of LCK (unknown origin) at 10 uM relative to control
Chain of Tyrosine-protein kinase Lck (Homo sapiens) (P06239 2-509 limits assumed): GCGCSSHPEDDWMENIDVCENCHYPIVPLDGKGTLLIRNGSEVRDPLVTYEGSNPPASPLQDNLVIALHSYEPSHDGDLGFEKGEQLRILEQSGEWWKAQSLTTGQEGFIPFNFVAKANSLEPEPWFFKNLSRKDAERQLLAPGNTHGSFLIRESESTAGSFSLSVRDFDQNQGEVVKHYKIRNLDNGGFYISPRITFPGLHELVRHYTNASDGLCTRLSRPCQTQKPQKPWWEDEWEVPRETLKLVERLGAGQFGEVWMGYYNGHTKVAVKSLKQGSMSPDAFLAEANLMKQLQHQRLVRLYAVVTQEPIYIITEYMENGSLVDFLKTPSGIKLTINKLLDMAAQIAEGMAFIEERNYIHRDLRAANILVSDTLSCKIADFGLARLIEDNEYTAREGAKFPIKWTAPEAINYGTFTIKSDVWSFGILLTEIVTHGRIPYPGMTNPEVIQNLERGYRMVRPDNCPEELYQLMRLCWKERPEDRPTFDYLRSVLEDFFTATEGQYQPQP

[12] = molecular target: Prostaglandin G/H synthase 1 (Homo sapiens) (UniProt P23219); assay: Inhibition of COX1 (unknown origin) at 10 uM relative to control
Chain of Prostaglandin G/H synthase 1 (Homo sapiens) (P23219 whole entry): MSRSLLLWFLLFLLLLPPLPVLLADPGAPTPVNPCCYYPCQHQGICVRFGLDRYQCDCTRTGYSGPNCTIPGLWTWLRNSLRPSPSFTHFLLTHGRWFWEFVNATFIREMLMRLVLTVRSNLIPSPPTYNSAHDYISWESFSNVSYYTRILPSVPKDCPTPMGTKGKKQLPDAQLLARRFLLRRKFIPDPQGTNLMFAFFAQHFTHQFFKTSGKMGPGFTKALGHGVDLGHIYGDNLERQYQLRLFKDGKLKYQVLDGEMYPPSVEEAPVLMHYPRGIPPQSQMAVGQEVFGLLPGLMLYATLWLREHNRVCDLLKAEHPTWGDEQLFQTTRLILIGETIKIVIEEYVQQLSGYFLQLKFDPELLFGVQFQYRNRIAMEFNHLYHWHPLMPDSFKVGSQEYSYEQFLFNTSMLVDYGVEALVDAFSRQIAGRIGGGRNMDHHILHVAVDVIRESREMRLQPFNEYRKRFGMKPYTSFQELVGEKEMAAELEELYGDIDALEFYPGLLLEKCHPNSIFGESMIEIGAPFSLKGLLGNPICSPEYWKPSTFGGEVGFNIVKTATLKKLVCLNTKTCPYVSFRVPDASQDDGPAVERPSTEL

MDCK-II = assay: Inhibition of P-gp in human MDR1-MDCKII cells at 10 uM relative to control; format: cell-based; conditions: Canis lupus familiaris
CYP3A4 = CYP3A4 (Homo sapiens, UniProt P08684); assay: Inhibition of human recombinant CYP3A4 at 10 uM relative to control; format: ADME
Chain of CYP3A4 (P08684 whole entry): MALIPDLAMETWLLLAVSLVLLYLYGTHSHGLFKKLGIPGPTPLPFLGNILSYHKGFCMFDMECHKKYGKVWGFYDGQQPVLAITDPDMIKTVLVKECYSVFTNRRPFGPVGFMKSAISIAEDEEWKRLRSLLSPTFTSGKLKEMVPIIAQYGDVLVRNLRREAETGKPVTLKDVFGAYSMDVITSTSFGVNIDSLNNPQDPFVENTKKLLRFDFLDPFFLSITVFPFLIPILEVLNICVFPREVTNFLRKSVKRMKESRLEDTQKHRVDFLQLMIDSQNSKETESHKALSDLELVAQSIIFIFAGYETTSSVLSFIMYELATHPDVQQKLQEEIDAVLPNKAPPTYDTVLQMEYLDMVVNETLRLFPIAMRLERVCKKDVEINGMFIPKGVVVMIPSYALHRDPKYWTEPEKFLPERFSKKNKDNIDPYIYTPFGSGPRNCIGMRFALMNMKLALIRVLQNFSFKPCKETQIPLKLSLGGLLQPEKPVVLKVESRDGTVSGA

CYP2D6 = CYP2D6 (Homo sapiens, UniProt P10635); assay: Inhibition of human recombinant CYP2D6 at 10 uM relative to control; format: ADME
[13] = Apparent volume of distribution during terminal phase in Wistar rat at […], po measured after 60 mins by HPLC analysis; format: ADME, organism-based; conditions: in vivo, dose 2.5 mg/kg, read-out: Vz/F
[14] = Toxicity in Wistar rat assessed as effect on flat body posture at 0.04 to […], po observed after 60 mins post treatment; format: organism-based; conditions: in vivo, 1 h, dose 0.04-2.5 mg/kg

O=C(c1ccc(F)c(Cl)c1)N1CCC(F)(CNCCOc2ccccn2)CC1
inhibition [1]: 32.2% | inhibition [2]: 2.2% | inhibition [3]: 0.4% | inhibition [4]: 39.1% | inhibition [5]: 8.8% | inhibition [6]: -9.1% | inhibition [7]: 25.5% | inhibition [8]: 39.7% | inhibition [9]: 13.2% | inhibition [10]: -2% | inhibition (Homo sapiens): 18.2% | inhibition [11]: 18.2% | inhibition [12]: 11.9% | inhibition (MDCK-II): 6.5% | inhibition at 10 µM (CYP3A4): 23.2% | inhibition at 10 µM (CYP2D6): 15.9% | Vd/F at 1 h [13]: 35.9 L/kg | Activity [14]: Non-Toxic
